Source: patent US11925624B2, “Methods of administering anti-fibrotic therapy” (GENENTECH, INC., priority 2016, dated 2024)
Read-outs that look alike come from different tables or passages of the source.

How the values were obtained:
[1] = Phase 1 Part A proton pump inhibitor (rabeprazole) effect on single-dose pharmacokinetics; type: in vivo, human; conditions: for AUC0-t (norm) / AUC0-∞ (norm) / CL/F / CL/F(norm) / Cmax (norm) / λZ / % AUCextrap / AUC(0-inf) / AUC(0-t) / Cmax / half-life / Tmax / Vd/F: +20 mg Rabeprazole QD x 3; for % AUCextrap: arithmetic mean; for AUC(0-inf) / AUC(0-t) / Cmax / half-life / Tmax / Vd/F: human, plasma, oral; for Tmax: median
Excerpt: This study was a randomized, blinded, placebo-controlled, ascending-dose study to evaluate the safety, tolerability, and pharmacokinetic (PK) of single (Part A) and multiple (Part B) doses of Compound I in healthy subjects. In addition, the effects of a standard high-fat breakfast, standard low-fat breakfast, and pretreatment and co-administration of a proton pump inhibitor (PPI) on the tolerability and PK of a single dose of Compound I were investigated in 2 groups in Part A. All subjects received their full dose of Compound I, administered as the appropriate number of either 25 or 200 mg tablets. The high fat breakfast comprised the following: total energy: 895 kcal; total fat: 61 g; total protein: 41 g; total carbohydrate: 46 g. The low fat breakfast comprised the following: total energy: 611 kcal; total fat: 14.7 g; total protein: 20.3 g; total carbohydrate: 106.3 g.
For Group A4, doses (400 mg Compound I or placebo) during Treatment Period 1 were administered in a fasted state on the morning of Day 1. Doses in Treatment Period 2 were administered 30 minutes after starting, and within approximately 10 minutes of completing, a high-fat standard breakfast on the morning of Day 1. Doses during Treatment Period 3 were administered 30 minutes after starting, and within approximately 10 minutes of completing a low-fat standard meal on the morning of Day 1. Doses during Treatment Period 4 were administered on Day 1 after an overnight fast and following administration of a PPI (rabeprazole 20 mg) for 3 days (given as 3 daily [QD] doses, with the final PPI dose at 2 hours prior to study drug administration on Day 1). Subjects in Group A4 received the same Compound I or placebo treatment in all treatment periods, such that each subject received up to 4 single doses of Compound I or placebo.
For Group A5, doses (800 mg Compound I or placebo) during Treatment Period 1 were administered in a fasted state on the morning of Day 1, doses during Treatment Period 2 were administered 30 minutes after starting a low-fat standard breakfast on the morning of Day 1, and doses during Treatment Period 3 were administered on Day 1 after a low-fat meal and following administration of a PPI (rabeprazole 20 mg) for 3 days (given as 3 QD doses, with the final PPI dose at 2 hours prior to study drug administration on Day 1). Subjects in Group A5 received the same Compound I or placebo treatment in all treatment periods, such that each subject received up to 3 single doses of Compound I or placebo.
In Part A, all doses in Treatment Period 1 were administered after an overnight fast of at least 8 hours. For the A4 cohort, in Treatment Periods 2 and 3, doses were administered 30 minutes after starting and approximately 10 minutes after completing a high- or low-fat breakfast. In Treatment Period 4, the dose was administered after an overnight fast and following administration of a PPI (PPI was comprised of 3 doses of rabeprazole 20 mg, starting on Day −2 and with the final dose 2 hours before Compound I administration on Day 1). For Group A5, doses during Treatment Period 2 were administered 30 minutes after starting and approximately 10 minutes after completing a low-fat standard breakfast on the morning of Day 1, and doses during Treatment Period 3 were administered on Day 1 after a low-fat meal and following administration of a PPI for 3 days (given as 3 QD doses, with the final PPI dose at 2 hours prior to study drug administration on Day 1).

[2] = Serum creatinine (Scr) change from baseline, MAD study (Part B); type: in vivo, human; conditions: for Number of subjects with change in Scr <0.3 mg/dL from baseline / Number of subjects with change in Scr ≥0.3 mg/dL from baseline / Number of subjects with percent change in Scr <30% from baseline / Number of subjects with percent change in Scr ≥30% from baseline: MAD
Procedure: In addition to the measurement of various PK parameters in both parts of the study, the changes in the subjects' serum creatinine levels were also evaluated in this study. Tables 6A and 6B summarize the change in level and percent change in serum creatinine from averaged screening and pre-dosing values for the subjects in SAD study in each treatment group, as applicable. Tables 7A and 7B summarize the change in level and percent change in scrum creatinine from averaged screening and pre-dosing values for the subjects in MAD study. […] In Part B of the study, 2 subjects (275 mg BID) experienced clinically significant TEAEs of increased creatinine on day 5. The mean change in serum creatinine from a combined screening and pre-dose baseline in the MAD part of the study is illustrated in FIG. 1. In addition, the mean change in creatinine level from combined screening and pre-dose level in the MAD part of the study is illustrated in FIG. 2.

[3] = 400 mg Fasted + 20 mg Rabeprazole QD x 3 (Test) vs 400 mg Fasted (Reference)
[4] = 400 mg single dose (A4), Fasted
[5] = 800 mg Fed, Low-fat + 20 mg Rabeprazole QD x 3 (Test) vs 800 mg Fed, Low-fat (Reference)
[6] = 800 mg single dose (A5), Fed, Low-fat
[7] = pretreatment and co-administration of 20 mg rabeprazole (QD×3), low-fat fed state, compared to Compound I alone

Test/Reference ratio of LS means, AUC0-t [1, 3]: 86.4%
Test/Reference ratio of LS means, AUC0-∞ [1, 3]: 87.2%
Test/Reference ratio of LS means, Cmax [1, 3]: 83.6%
AUC0-t (norm) [1, 4]: 8130 (hr*ng/mL)/(mg/kg)
AUC0-∞ (norm) [1, 4]: 8410 (hr*ng/mL)/(mg/kg)
CL/F [1, 4]: 139 mL/min
CL/F(norm) [1, 4]: 1.98 (mL/min)/kg
Cmax (norm) [1, 4]: 660 ng/mL/mg/kg
λZ [1, 4]: 0.0603 h⁻¹
% AUCextrap [1, 4]: 3.25%
Test/Reference ratio of LS means, AUC0-t [1, 5]: 76.5%
Test/Reference ratio of LS means, AUC0-∞ [1, 5]: 77.2%
Test/Reference ratio of LS means, Cmax [1, 5]: 75.0%
AUC0-t (norm) [1, 6]: 11000 (hr*ng/mL)/(mg/kg)
AUC0-∞ (norm) [1, 6]: 11100 (hr*ng/mL)/(mg/kg)
CL/F [1, 6]: 108 mL/min
CL/F(norm) [1, 6]: 1.50 (mL/min)/kg
Cmax (norm) [1, 6]: 900 ng/mL/mg/kg
λZ [1, 6]: 0.0666 h⁻¹
% AUCextrap [1, 6]: 1.27%
AUC(0-inf) [1, 4]: 48100 ng·h/mL
AUC(0-t) [1, 4]: 46500 ng·h/mL
Cmax [1, 4]: 3770 ng/mL
half-life [1, 4]: 10.5 h
Tmax [1, 4]: 2.5 h
Vd/F ([1]; 400 mg single dose (A4), Fasted, read-out: Vz/F): 138 L
Vd/F ([1]; 400 mg single dose (A4), Fasted, read-out: Vz/F(norm)): 1.97 L/kg
AUC(0-inf) [1, 6]: 124000 ng·h/mL
AUC(0-t) [1, 6]: 122000 ng·h/mL
Cmax [1, 6]: 10000 ng/mL
half-life [1, 6]: 8.92 h
Tmax [1, 6]: 3 h
Vd/F ([1]; 800 mg single dose (A5), Fed, Low-fat, read-out: Vz/F): 97.2 L
Vd/F ([1]; 800 mg single dose (A5), Fed, Low-fat, read-out: Vz/F(norm)): 1.35 L/kg
Decrease in AUC0-t [1, 7]: 23.5%
Decrease in AUC0-∞ [1, 7]: 22.8%
Decrease in Cmax [1, 7]: 25.0%
Subjects with mean change from baseline ≥0.3 mg/dL in Scr ([2]; MAD study, all subjects): 25%
Subjects with mean percent change from baseline ≥30% in Scr ([2]; MAD study, all subjects): 50%
Number of subjects with change in Scr <0.3 mg/dL from baseline ([2]; 400 mg (200 mg BID)): 5
Number of subjects with change in Scr ≥0.3 mg/dL from baseline ([2]; 400 mg (200 mg BID)): 1
Number of subjects with percent change in Scr <30% from baseline ([2]; 400 mg (200 mg BID)): 1
Number of subjects with percent change in Scr ≥30% from baseline ([2]; 400 mg (200 mg BID)): 5
Number of subjects with change in Scr <0.3 mg/dL from baseline ([2]; 525 mg): 5
Number of subjects with change in Scr ≥0.3 mg/dL from baseline ([2]; 525 mg): 1
Number of subjects with percent change in Scr <30% from baseline ([2]; 525 mg): 3
Number of subjects with percent change in Scr ≥30% from baseline ([2]; 525 mg): 3
Number of subjects with change in Scr <0.3 mg/dL from baseline ([2]; 550 mg (275 mg BID)): 2
Number of subjects with change in Scr ≥0.3 mg/dL from baseline ([2]; 550 mg (275 mg BID)): 4
Number of subjects with percent change in Scr <30% from baseline ([2]; 550 mg (275 mg BID)): 2
Number of subjects with percent change in Scr ≥30% from baseline ([2]; 550 mg (275 mg BID)): 4
Subjects with increases over the upper limit of normal (ULN) in serum creatinine ([2]; Part B (MAD), across all dose levels): about 56%
Compound: Cn1cc(-c2cn(-c3ccc(OC(F)(F)F)cc3)c(=O)c3ncn(C)c23)cn1 [Compound I]
Subjects with clinically significant TEAEs of increased creatinine ([2]; Part B, 275 mg BID, day 5): 2 subjects
